Measured values taken from PubChem BioAssay (NCI).
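A five-concentration, 48-hour dose response in 96-well plates underlies each endpoint, interpolated linearly between surrounding concentrations. GI50: concentration for 50% inhibition of growth. TGI: concentration producing complete growth inhibition.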

Key:
Assay in all cases: NCI-60 cell line screen, 48 h
SR leukemia = test system: SR leukemia
SW-620 colon = test system: SW-620 colon
MDA-MB-435 = test system: MDA-MB-435
SF-539 CNS = test system: SF-539 CNS
OVCAR-3 ovarian = test system: OVCAR-3 ovarian
CCRF-CEM leukemia = test system: CCRF-CEM leukemia
RPMI-8226 leukemia = test system: RPMI-8226 leukemia
786-0 renal = test system: 786-0 renal
CAKI-1 renal = test system: CAKI-1 renal
RXF 393 renal = test system: RXF 393 renal
ACHN renal = test system: ACHN renal
HOP-62 NSCLC = test system: HOP-62 NSCLC
OVCAR-8 ovarian = test system: OVCAR-8 ovarian
SN12C renal = test system: SN12C renal
HL-60(TB) leukemia = test system: HL-60(TB) leukemia
U251 CNS = test system: U251 CNS
OVCAR-5 ovarian = test system: OVCAR-5 ovarian
PC-3 prostate = test system: PC-3 prostate
UO-31 renal = test system: UO-31 renal
A549 NSCLC = test system: A549 NSCLC
HT29 colon = test system: HT29 colon
HS 578T breast = test system: HS 578T breast
DU-145 prostate = test system: DU-145 prostate
SK-MEL-5 melanoma = test system: SK-MEL-5 melanoma
MCF7 breast = test system: MCF7 breast
SF-268 CNS = test system: SF-268 CNS
A498 renal = test system: A498 renal
SF-295 CNS = test system: SF-295 CNS
KM12 colon = test system: KM12 colon

C=CC[Se]C(=O)c1cncc(C(=O)[Se]CC=C)c1
GI50 (SR leukemia): 3020 nM
TGI (SR leukemia): 27100 nM
GI50 (SW-620 colon): 1940 nM
TGI (SW-620 colon): 3680 nM
GI50 (MDA-MB-435): 1880 nM
TGI (MDA-MB-435): 3790 nM
GI50 (SF-539 CNS): 1360 nM
TGI (SF-539 CNS): 2650 nM
GI50 (OVCAR-3 ovarian): 1890 nM
TGI (OVCAR-3 ovarian): 3400 nM
GI50 (CCRF-CEM leukemia): 2420 nM
TGI (CCRF-CEM leukemia): 7280 nM
GI50 (RPMI-8226 leukemia): 2450 nM
TGI (RPMI-8226 leukemia): 6380 nM
GI50 (786-0 renal): 1850 nM
TGI (786-0 renal): 3270 nM
GI50 (CAKI-1 renal): 1800 nM
TGI (CAKI-1 renal): 3460 nM
GI50 (RXF 393 renal): 2170 nM
TGI (RXF 393 renal): 5180 nM
GI50 (ACHN renal): 3280 nM
TGI (ACHN renal): 10300 nM
GI50 (HOP-62 NSCLC): 525 nM
TGI (HOP-62 NSCLC): 2230 nM
GI50 (OVCAR-8 ovarian): 1510 nM
TGI (OVCAR-8 ovarian): 2940 nM
GI50 (SN12C renal): 628 nM
TGI (SN12C renal): 1920 nM
GI50 (HL-60(TB) leukemia): 2640 nM
TGI (HL-60(TB) leukemia): 7670 nM
GI50 (U251 CNS): 782 nM
TGI (U251 CNS): 2220 nM
GI50 (OVCAR-5 ovarian): 1550 nM
TGI (OVCAR-5 ovarian): 3160 nM
GI50 (PC-3 prostate): 431 nM
TGI (PC-3 prostate): 1530 nM
GI50 (UO-31 renal): 1650 nM
TGI (UO-31 renal): 3030 nM
GI50 (A549 NSCLC): 434 nM
TGI (A549 NSCLC): > 100000 nM
GI50 (HT29 colon): 3030 nM
TGI (HT29 colon): 10900 nM
GI50 (HS 578T breast): 1940 nM
TGI (HS 578T breast): 6820 nM
GI50 (DU-145 prostate): 2220 nM
TGI (DU-145 prostate): 4730 nM
GI50 (SK-MEL-5 melanoma): 1710 nM
TGI (SK-MEL-5 melanoma): 3690 nM
GI50 (MCF7 breast): 2210 nM
TGI (MCF7 breast): 5550 nM
GI50 (SF-268 CNS): 2230 nM
TGI (SF-268 CNS): 6820 nM
GI50 (A498 renal): 3570 nM
TGI (A498 renal): 47800 nM
GI50 (SF-295 CNS): 261 nM
TGI (SF-295 CNS): 756 nM
GI50 (KM12 colon): 1340 nM
TGI (KM12 colon): 2760 nM
